Measurements as given in ChEMBL document CHEMBL1201862, “PubChem BioAssay data set” (2004).
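A five-concentration, 48-hour dose response in 96-well plates underlies each endpoint, interpolated linearly between surrounding concentrations. GI50: concentration for 50% inhibition of growth.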 Calls of active or inactive are those of the source. Rule as the data show it: active = GI50 up to about 1.1 µM and inactive = higher.

Experiments:
Experiment in all cases: growth of human tumour cells (NCI), 48 h
MOLT-4 = test system: MOLT-4
COLO 205 = test system: COLO 205
HOP-92 = test system: HOP-92
PC-3 = test system: PC-3
NCI-H522 = test system: NCI-H522
KM12 = test system: KM12
SF-295 = test system: SF-295
HCC 2998 = test system: HCC 2998
SNB-19 = test system: SNB-19
DU-145 = test system: DU-145
786-0 = test system: 786-0
MDA-MB-435 = test system: MDA-MB-435
OVCAR-4 = test system: OVCAR-4
TK-10 = test system: TK-10
RPMI-8226 = test system: RPMI-8226
UACC-62 = test system: UACC-62
NCI-H226 = test system: NCI-H226
HCT-15 = test system: HCT-15
EKVX = test system: EKVX
SK-OV-3 = test system: SK-OV-3

Structure (SMILES)	GI50 (MOLT-4)	GI50 (COLO 205)	GI50 (HOP-92)	GI50 (PC-3)	GI50 (NCI-H522)	GI50 (KM12)	GI50 (SF-295)	GI50 (HCC 2998)	GI50 (SNB-19)	GI50 (DU-145)	GI50 (786-0)	GI50 (MDA-MB-435)	GI50 (OVCAR-4)	GI50 (TK-10)	GI50 (RPMI-8226)	GI50 (UACC-62)	GI50 (NCI-H226)	GI50 (HCT-15)	GI50 (EKVX)	GI50 (SK-OV-3)
O=S(=O)(c1ccccc1)N1CCCC(c2ccccc2)CC1 (stereo unspecified)	15.2 µM (inactive)	42 µM (inactive)	> 100 µM (inactive)	30.6 µM (inactive)	35.4 µM (inactive)	41 µM (inactive)	43.7 µM (inactive)	23.9 µM (inactive)	93.8 µM (inactive)	> 100 µM (inactive)	41.9 µM (inactive)	82 µM (inactive)	79.1 µM (inactive)	51.9 µM (inactive)	16.4 µM (inactive)	> 100 µM (inactive)	52.7 µM (inactive)	46.5 µM		
O=C(NC1CCN(Cc2ccccc2)CC1)c1cccc(I)c1	13.9 µM (inactive)	17.6 µM (inactive)	22 µM (inactive)	18.5 µM (inactive)	17.8 µM (inactive)	16.5 µM (inactive)	18.3 µM (inactive)		35 µM (inactive)	72.3 µM (inactive)	25.4 µM (inactive)	17.3 µM (inactive)	58.2 µM (inactive)	22.8 µM (inactive)	12.5 µM (inactive)	20.5 µM (inactive)	31.6 µM (inactive)	17.5 µM	45.2 µM (inactive)	22.2 µM (inactive)
CC(=O)Nc1ccc(/N=C2\C(c3ccccc3)=C(SC3=C(c4ccccc4)/C(=N\c4ccc(NC(C)=O)cc4)c4ccccc43)c3ccccc32)cc1	21.6 µM (inactive)	32 µM (inactive)	27 µM (inactive)	31.1 µM (inactive)	28.4 µM (inactive)	27 µM (inactive)	31 µM (inactive)	26.7 µM (inactive)	56 µM (inactive)	37.8 µM (inactive)	37.3 µM (inactive)	26.5 µM (inactive)	29.6 µM (inactive)	69.7 µM (inactive)	19.4 µM (inactive)		53.6 µM (inactive)	44.5 µM	34.5 µM (inactive)	35.8 µM (inactive)
Oc1nc(S)nc2c1CN(CCCN1CCOCC1)CN2	28.2 µM (inactive)	18.3 µM (inactive)	37.7 µM (inactive)	22.1 µM (inactive)	21.2 µM (inactive)	28.2 µM (inactive)	28.2 µM (inactive)	21.9 µM (inactive)	> 100 µM (inactive)	34.2 µM (inactive)	40.4 µM (inactive)	22.5 µM (inactive)	38.5 µM (inactive)	56.6 µM (inactive)	26.9 µM (inactive)	19.7 µM (inactive)	> 100 µM (inactive)	32 µM	> 100 µM (inactive)	
CCOC(=O)Oc1cc2ccsc2c2c1c1ccccc1n2C(=O)OCC	> 100 µM (inactive)	> 100 µM (inactive)	22 µM (inactive)	38.2 µM (inactive)	32.1 µM (inactive)	49.9 µM (inactive)	36.1 µM (inactive)			32.8 µM (inactive)	34.1 µM (inactive)	68.9 µM (inactive)	40.3 µM (inactive)	50 µM (inactive)	82 µM (inactive)	34.4 µM (inactive)	42.2 µM (inactive)	26.2 µM	60.7 µM (inactive)	29 µM (inactive)
CCOC(=O)c1ccc(/N=N/N(C)C(=O)C(C)N)cc1 (stereo unspecified)	43.7 µM (inactive)	> 100 µM (inactive)	46.7 µM (inactive)	> 100 µM (inactive)	86.5 µM (inactive)	> 100 µM (inactive)	> 100 µM (inactive)	> 100 µM (inactive)	> 100 µM (inactive)	> 100 µM (inactive)	> 100 µM (inactive)	56.8 µM (inactive)	> 100 µM (inactive)	> 100 µM (inactive)	> 100 µM (inactive)	> 100 µM (inactive)	> 100 µM (inactive)	> 100 µM	> 100 µM (inactive)	
CCNC1=C(NC(=O)CCl)C(=O)c2ccccc2C1=O	18.2 µM (inactive)	> 10 µM (inactive)	21 µM (inactive)	16 µM (inactive)	15.1 µM (inactive)	17.1 µM (inactive)	19.4 µM (inactive)	> 10 µM (inactive)	26.7 µM (inactive)	> 10 µM (inactive)	34.4 µM (inactive)	19.1 µM (inactive)	17 µM (inactive)	17.7 µM (inactive)	34 µM (inactive)		22 µM (inactive)	18.5 µM	16 µM (inactive)	> 10 µM (inactive)
CCOC1CC(C)N(C(=O)c2ccccc2)O1 (stereo unspecified)	> 100 µM (inactive)		31.7 µM (inactive)	80.2 µM (inactive)		> 100 µM (inactive)	> 100 µM (inactive)	> 100 µM (inactive)	> 100 µM (inactive)	> 100 µM (inactive)	> 100 µM (inactive)	> 100 µM (inactive)		> 100 µM (inactive)		> 100 µM (inactive)	> 100 µM (inactive)		> 100 µM (inactive)	> 100 µM (inactive)
